In patent US20040220270A1, “Methods and composition of treating glaucoma by modulating tyrosinase/L-DOPA pathway” (The Jackson Laboratory, priority 2003, published 2004):
Entries after “also recorded” stand apart in the source; their conditions may differ.

Tested on: Cyp1b1^−/− Tyr^c−2J/c−2J (albino) double mutants
Experiment: L-DOPA supplementation via drinking water throughout ocular development; histologic and electron microscopic grading of angle dysgenesis
Type: in vivo, mice
Details: for developmental abnormalities in the iridocorneal angle / severe angle dysgenesis (histology): L-DOPA 1 mg/ml in drinking water from gestation until harvest at approximately 4 weeks
Description: Applicant hypothesized that tyrosinase might affect angle development through modulation of L-DOPA levels. Tyrosinase is a monooxygenase that converts tyrosine to L-DOPA and L-DOPA to dopaquinone. L-DOPA affects development and is the precursor of catecholamines, which are important developmental regulators (15-17). To investigate whether L-DOPA is a critical molecule in angle development, Applicant administered water containing L-DOPA or standard drinking water to Cyp1b1^-/- Tyr^c-2J/c-2J (albino) double mutants throughout ocular development [their mothers received this water throughout the period of in utero development (12)]. […] Despite the profound rescue in L-DOPA treated albino Cyp1b1^-/- mice, mild abnormalities of similar severity to those observed in pigmented Cyp1b1^-/- mice remained. […] These include genes that affect L-DOPA levels, affect the metabolism of L-DOPA to other developmentally important molecules or affect the signaling of these molecules in developmental/physiologic pathways. L-DOPA treatment-L-DOPA (dihydroxyphenylalanine, 15,431-8, Aldrich Chemical Company, Inc., Milwaukee, Wis.) was supplied to the animals via their drinking water at a concentration of 1 mg/ml (5, 6). L-DOPA was dissolved into acidic water (pH of 3) to avoid oxidation. Animals were either on L-DOPA for their entire gestation or started on L-DOPA at embryonic day E5.5 (prior to eye formation). Eyes were harvested at approximately 4 weeks of age and L-DOPA treatment was continued until the time of harvest. Freshly made L-DOPA water was supplied every three days. Histologic and electron microscopic analyses-Applicant fixed and processed eyes for plastic sectioning and electron microscopy as previously reported (1, 9). All tissues were harvested from mice at ages after angle formation. For light microscopy, eyes were […] sectioned and up to 56 sections were collected from each of 3 different ocular regions for all eyes. […] Collected regions included nasal lens periphery, central lens, and a region halfway between the lens center and the peripheral lens. Sections were stained with hematoxylin and eosin. Due to the potential for artifact in the delicate tissues analyzed abnormalities had to be present in multiple sections from the same region. Nine to twelve eyes were analyzed for each genotype on each genetic background. Applicant devised a grading scheme to allow comparison between different eyes. Applicant separately assessed the severity of defects affecting Schlemm's canal (SC), trabecular meshwork (TM) and creating synechiae. For each phenotype, Applicant graded 6 similarly spaced sections for each ocular region. Applicant graded the severity of abnormalities in both angles of a section. Thus, Applicant graded 36 angles (6 sections×2 angles×3 regions) from different ocular regions for each eye. Applicant designated a grade of 0, 1, 2, 3, or 4 (increasing in severity from 0 to 4, see below) to each phenotype for each angle. For an eye, the total grade could be any value between 0 and 144 (36 angles×4). […] To assess the difference in the severity of angle dysgenesis between the albino and pigmented eyes, Applicant graded approximately 10 eyes from mice of each Cyp1b1 and Foxc1 genotype. Due to the continuous nature of the grade, Applicant present the data as mean± SEM and compared genotypes using two tailed student t-tests. Applicant checked the consistency of the grading method by assessing 8 random eyes on a second occasion without knowledge of the initial grade. […]

For `N[C@@H](Cc1ccc(O)c(O)c1)C(=O)O` [L-DOPA, 3,4-dihydroxyphenylalanine], which “developmental abnormalities in the iridocorneal angle / severe angle dysgenesis (histology)” value (Cyp1b1^−/− Tyr^c−2J/c−2J mice, B6 background, versus untreated) is on record?
Its value is “alleviated; also recorded: prevent the severe angle dysgenesis”.

What about the “developmental abnormalities in the iridocorneal angle / severe angle dysgenesis (histology)” value (Cyp1b1^−/− Tyr^c−2J/c−2J mice, B6 background, versus untreated, listed as LDOPA) of the same compound?
Its value is “substantially prevented developmental abnormalities”.

What about the “ultrastructure of the trabecular meshwork (electron micrographs)” value (Cyp1b1^−/− Tyr^c−2J/c−2J mice, B6 background, L-DOPA 1 mg/ml in drinking water, versus untreated) of the same compound?
The value was “rescues the ultrastructure of the trabecular meshwork”.

What about the “mean severity grades of developmental dysgenesis (Schlemm's canal, trabecular meshwork, synechiae)” value (Cyp1b1^−/− Tyr^c−2J/c−2J mice, L-DOPA 1 mg/ml in drinking water, grade 0-144 per eye, p<0.001 for all assessed phenotypes versus untreated) of the same compound?
Its value is “can be alleviated”.

And the “abnormalities remaining after L-DOPA treatment” value (L-DOPA treated albino Cyp1b1^−/− mice, compared with pigmented Cyp1b1^−/− mice)?
Its value is “mild abnormalities of similar severity to those observed in pigmented Cyp1b1^−/− mice remained”.
